The values below come from paper PMC12888920, “MMP-9 regulates disulphide isomerase activity of TGM2 to enhance fusion glycoprotein-mediated syncytium formation of respiratory syncytial virus” (Protein & Cell, 2025).

In one experiment the test system is RSV A2. Put plainly: Suppression of RSV progeny viral titer (FFA, 72 hpi) in HEp-2 cells. The experiment is classed as cell-based, Respiratory syncytial virus. The following applies: 0.2 and 1 MOI. On the procedure: Figure 2. MMP-9 regulates late-stage RSV infection. (A) Time-of-addition assay design (left). HEp-2 cells were treated with metalloproteinase inhibitors under three regimens: “Full-time” (2 h pretreatment + continuous exposure), “Entry” (viral attachment phase only), or “Post-entry” (≥ 2 hpi). Cells infected with RSV A2 (MOI = 1) were analyzed for cytopathic effect inhibition at 72 hpi versus DMSO controls. mean ± SD, n = 3. (B) No inhibition of RSV F/G/SH pseudovirus entry by doxycycline hyclate or JNJ0966 (5 µmol/L). mean ± SD, n = 3. (C) Temporal sensitivity analysis (left). Viral RNA levels (22 hpi) in HEp-2 cells treated with 5 µmol/L inhibitors at defined intervals: pre-infection (−2–0 h), entry (0–2 h), or post-entry (2–16 h) phases (right). mean ± SD, n = 3. (D) Multicycle replication kinetics. […] (F) Dose-dependent suppression of RSV progeny (MOI = 0.2/1) by inhibitors (72 hpi), quantified by FFA. mean ± SD, n = 3. […]
To evaluate the effects of the compounds on RSV assembly and release, we treated HEp-2 cells with the inhibitors at 10 hpi (the onset of virion assembly) or 16 hpi (the onset of virion release) following RSV infection ([Malhi et al., 2021]). Supernatants were collected at 22 hpi for viral titer quantification. […] Furthermore, at 72 hpi, viral titers were quantified following infection with varying doses of RSV (0.2 and 1 MOI).

The next experiment has as its system RSV F/G/SH pseudovirus. Put plainly: RSV F/G/SH pseudovirus entry assay (luciferase). The note with it: 5 µmol/L, HEp-2, 48 hpi. Type of experiment: cell-based, Respiratory syncytial virus. The method, then:
Figure 2. MMP-9 regulates late-stage RSV infection. (A) Time-of-addition assay design (left). HEp-2 cells were treated with metalloproteinase inhibitors under three regimens: “Full-time” (2 h pretreatment + continuous exposure), “Entry” (viral attachment phase only), or “Post-entry” (≥ 2 hpi). Cells infected with RSV A2 (MOI = 1) were analyzed for cytopathic effect inhibition at 72 hpi versus DMSO controls. mean ± SD, n = 3. (B) No inhibition of RSV F/G/SH pseudovirus entry by doxycycline hyclate or JNJ0966 (5 µmol/L). mean ± SD, n = 3. (C) Temporal sensitivity analysis (left). Viral RNA levels (22 hpi) in HEp-2 cells treated with 5 µmol/L inhibitors at defined intervals: pre-infection (−2–0 h), entry (0–2 h), or post-entry (2–16 h) phases (right). mean ± SD, n = 3. (D) Multicycle replication kinetics. Intracellular RSV RNA (fusion gene copies) in HEp-2 cells treated with 5 µmol/L inhibitors at indicated time points (4–144 hpi). mean ± SD, n = 3. (E) Viral assembly/release inhibition assay. Supernatant viral titers at 22 hpi after post-entry treatment (10/16 hpi) (right). mean ± SD, n = 3. (F) Dose-dependent suppression of RSV progeny (MOI = 0.2/1) by inhibitors (72 hpi), quantified by FFA. mean ± SD, n = 3. […] The results are representatively shown with three random experiments. The error bars indicate the mean ± SD of three technical replicates (n = 3). […]

Turning to `COc1ccccc1Nc1nc(-c2sc(NC(C)=O)nc2C)cs1` [JNJ0966], the “inhibition of RSV replication (viral titers)” value in the experiment on RSV A2 was “dose-dependent inhibition”. Moreover, the “inhibition of RSV F/G/SH pseudovirus entry” value with RSV F/G/SH pseudovirus is reported as “No inhibition”.
As to Doxycycline hyclate, the “inhibition of RSV replication (viral titers)” value in the experiment on RSV A2 was “dose-dependent inhibition”. Moreover, the “inhibition of RSV F/G/SH pseudovirus entry” value with RSV F/G/SH pseudovirus is “No inhibition”.
